The text below walks through data of paper PMC8927117, “Structural Insight into the MCM double hexamer activation by Dbf4-Cdc7 kinase” (Nature Communications, 2022).

The test system of assay [1] is T1, MCM double hexamer (MCM-DH, Mcm2-7).
T1 construct: endogenous double hexamer from G1 chromatin, TEV-3xFLAG tag on Mcm7 or Mcm2
Briefly: cryo-EM structure. More on the design: species or system Saccharomyces cerevisiae. To be noted: with DDK bound, nucleotide-binding pockets of MCM subunits.

For assay [2], the target named is T2, DDK (Dbf4-Cdc7 kinase) (Saccharomyces cerevisiae, UniProt P06243).
T2 construct: Dbf4 704 residues; with DDK kinase regulatory subunit DBF4
T2 sequence (P06243 whole entry): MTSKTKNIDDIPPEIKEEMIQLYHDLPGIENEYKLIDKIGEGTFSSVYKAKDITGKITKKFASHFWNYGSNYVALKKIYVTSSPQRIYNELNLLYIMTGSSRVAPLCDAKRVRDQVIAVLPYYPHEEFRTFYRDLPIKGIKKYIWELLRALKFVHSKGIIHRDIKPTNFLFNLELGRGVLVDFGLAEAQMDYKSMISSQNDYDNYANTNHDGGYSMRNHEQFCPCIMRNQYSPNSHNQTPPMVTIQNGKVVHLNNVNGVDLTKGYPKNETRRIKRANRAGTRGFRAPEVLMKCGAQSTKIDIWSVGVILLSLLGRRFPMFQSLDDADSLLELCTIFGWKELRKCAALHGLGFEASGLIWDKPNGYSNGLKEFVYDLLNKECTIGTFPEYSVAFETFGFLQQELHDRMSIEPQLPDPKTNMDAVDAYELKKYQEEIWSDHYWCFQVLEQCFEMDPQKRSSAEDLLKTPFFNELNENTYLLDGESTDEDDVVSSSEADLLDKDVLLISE
T2 sequence (P32325 whole entry partner): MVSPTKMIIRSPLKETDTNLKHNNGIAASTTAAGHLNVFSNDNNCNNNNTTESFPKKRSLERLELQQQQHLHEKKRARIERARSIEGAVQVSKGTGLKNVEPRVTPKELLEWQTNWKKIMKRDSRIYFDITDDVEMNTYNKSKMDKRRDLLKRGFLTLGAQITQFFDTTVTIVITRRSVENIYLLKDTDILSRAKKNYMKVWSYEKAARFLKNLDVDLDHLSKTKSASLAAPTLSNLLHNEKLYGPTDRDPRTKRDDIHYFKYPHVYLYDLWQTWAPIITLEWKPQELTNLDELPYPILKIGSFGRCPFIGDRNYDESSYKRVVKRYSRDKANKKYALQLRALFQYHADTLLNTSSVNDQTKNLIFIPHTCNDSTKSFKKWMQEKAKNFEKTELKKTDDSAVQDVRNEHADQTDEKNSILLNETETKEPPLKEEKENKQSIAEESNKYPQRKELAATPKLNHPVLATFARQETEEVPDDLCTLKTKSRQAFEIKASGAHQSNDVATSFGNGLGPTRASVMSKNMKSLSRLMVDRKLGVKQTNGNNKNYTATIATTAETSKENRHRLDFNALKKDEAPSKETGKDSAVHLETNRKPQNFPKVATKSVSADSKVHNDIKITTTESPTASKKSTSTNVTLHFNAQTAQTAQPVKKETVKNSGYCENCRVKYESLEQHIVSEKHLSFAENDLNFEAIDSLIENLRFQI
The assay can be described thus: cryo-EM structure. It counts as binding. To be noted: bound to MCM double hexamer, glutaraldehyde Grafix, 1 mM ATP-γ-S, 8 mM Mg(OAc)2; Cdc7 active center.

For `Nc1ncnc2c1ncn2[C@@H]1O[C@H](COP(=O)(O)OP(=O)(O)O)[C@@H](O)[C@H]1O` [ADP], in assay [1] (no ADP added), the cryo-EM structure entry is “nucleotide-binding pockets of MCM subunits were modeled as ATP-γ-S or ADP”.
Turning to `Nc1ncnc2c1ncn2[C@@H]1O[C@H](COP(=O)(O)OP(=O)(O)OP(O)(O)=S)[C@@H](O)[C@H]1O` [ATP-γ-S], the cryo-EM structure entry in assay [2] is “Thr506, is situated close to the γ-phosphate of the ATP-γ-S nucleotide in the active center”; in assay [1] (1 mM ATP-γ-S), “nucleotide-binding pockets of MCM subunits were modeled as ATP-γ-S or ADP”.
